Drawing on US8293729B2 (Boehringer Ingelheim International GmbH, priority 2009, dated 2012), this text covers activation and EC50 for 45 compounds.

Structures are written as SMILES. Some results are limits rather than exact numbers.

The target of one test is T1, human GPR119 receptor (Homo sapiens, UniProt Q8TDV5, S329A/T327A).
T1 construct: N-terminal leader […]; expressed in transfected cells
T1 sequence (Q8TDV5 with tags, fused parts or gaps T327A/S329A): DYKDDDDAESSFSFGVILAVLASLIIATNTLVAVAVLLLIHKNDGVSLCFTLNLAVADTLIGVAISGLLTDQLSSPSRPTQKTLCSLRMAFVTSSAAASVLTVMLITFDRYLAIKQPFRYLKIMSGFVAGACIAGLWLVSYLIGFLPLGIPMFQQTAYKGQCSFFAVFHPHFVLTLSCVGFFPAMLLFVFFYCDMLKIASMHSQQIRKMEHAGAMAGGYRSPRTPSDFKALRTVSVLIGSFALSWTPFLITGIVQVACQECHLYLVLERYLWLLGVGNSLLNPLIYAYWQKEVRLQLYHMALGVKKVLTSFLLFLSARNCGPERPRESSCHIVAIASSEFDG
Description: cAMP assay (LANCE cAMP-384) in HEK293 cells stably expressing mutant human GPR119 receptor. It is filed as cell-based. The settings on record: HEK293, 20 min; 10 μM; the 28th table; read-out: stimulation in % at 10 μM. Put shortly: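 HEK293 cells stably expressing human GPR119 (T327A/S329A, modified N-terminus), 1000 cells/well, exposed to compound for 20 min at 37° C. cAMP quantified by LANCE TR-FRET against a standard curve; EC50 from 12 points, 30 μM to 100 pM, or % stimulation at 10 μM.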
As to `CC(C)OC(=O)N1CCC(ON=C2CCN(c3ncc(N4CCCC4=O)cn3)CC2)CC1` [Example 51-6], the activation at 10 µM was 98%.

The same test, now with this note: cAMP accumulation, HEK293 cells stably expressing mutant human GPR119; read-out: EC50.
As to `CC(C)OC(=O)N1CCC(ON=C2CCN(c3cc(F)c(Cn4cccn4)cc3F)CC2)CC1` [Example 14-1, 4-{1[2,5-Difluoro-4-(pyrazol-1-ylmethyl)-phenyl]-piperidin-4-ylideneaminooxy}-piperidine-1-carboxylic acid isopropyl ester], the EC50 is 38 nM.

On to `CC(C)OC(=O)N1CCC(ON=C2CCN(c3nccnc3Cl)CC2)CC1` [Example 2-10], for which the EC50 was 363 nM.

Consider `CC(C)OC(=O)N1CCC(ON=C2CCN(c3cc(F)c(Cn4ccnn4)cc3F)CC2)CC1` [Example 14-12], for which the EC50 turned out to be 32 nM.

In the case of `CC(C)OC(=O)N1CCC(ON=C2CCN(c3ccccc3)CC2)CC1` [Example 32-1, 4-(1-Phenyl-piperidin-4-ylideneaminooxy)-piperidine-1-carboxylic acid isopropyl ester], the EC50 was more than 10000 nM.

Take `CC(C)OC(=O)N1CCC(ON=C2CCN(c3nncs3)CC2)CC1` [Example 2-14]: the EC50 is more than 10000 nM.

On to `CC(C)OC(=O)N1CCC(ON=C2CCN(c3cc(F)c(-c4c[nH]cn4)cc3F)CC2)CC1` [Example 27-14], for which the EC50 is 152 nM.

With `Cc1cc(C=O)ccc1N1CCC(=NOC2CCN(C(=O)OC(C)C)CC2)CC1` [Example 2-29], the EC50 was 3170 nM.

Consider `CC(C)OC(=O)N1CCC(ON=C2CCN(c3nc(F)ccc3F)CC2)CC1` [Example 2-70], for which the EC50 amounted to 3260 nM.

In the case of `CC(C)OC(=O)N1CCC(ON=C2CCN(c3cc(F)c(-n4cccc4)cc3F)CC2)CC1` [Example 22-2], the EC50 is 767 nM.

`CC(C)OC(=O)N1CCC(ON=C2CCN(c3cc(F)c(CNCCC(=O)O)cc3F)CC2)CC1` [Example 7-1, 4-(1-{4-[(2-Carboxy-ethylamino)-methyl]-2,5-difluoro-phenyl}-piperidin-4-ylideneaminooxy)-piperidine-1-carboxylic acid isopropyl ester]: the EC50 was found to be 1150 nM.

Turning to `CC(C)OC(=O)N1CCC(ON=C2CCN(c3ccc(-c4cnco4)cc3F)CC2)CC1` [Example 20-2], the EC50 came to 498 nM.

As for `CC(C)OC(=O)N1CCC(ON=C2CCN(c3cc(F)c(C(=O)NCCN)cc3F)CC2)CC1` [Example 31-2], the EC50 was determined as 348 nM.

On to `CC(C)OC(=O)N1CCC(ON=C2CCN(c3cc(F)c(Cn4ccnc4)cc3F)CC2)CC1` [Example 14-4], for which the EC50 is 268 nM.

As to `CC(C)OC(=O)N1CCC(ON=C2CCN(c3ncc(C#N)c(N)n3)CC2)CC1` [Example 2-18], the EC50 was more than 10000 nM.

For the compound `CC(C)OC(=O)N1CCC(ON=C2CCN(c3ccc(C=O)c(O)c3)CC2)CC1` [Example 2-30], the EC50 is more than 10000 nM.

Turning to `CC(C)OC(=O)N1CCC(ON=C2CCN(c3ccnc(Cl)n3)CC2)CC1` [Example 2-46], the EC50 stood at 1880 nM.

Regarding `CCOC(=O)c1cnn(Cc2cc(F)c(N3CCC(=NOC4CCN(C(=O)OC(C)C)CC4)CC3)cc2F)c1` [Example 14-11], the EC50 came out at 190 nM.

As to `CC(C)OC(=O)N1CCC(ON=C2CCN(c3ccc(S(C)(=O)=O)cc3)CC2)CC1` [Example 2-16], the EC50 worked out at 328 nM.

The test is the same for the next values; noted with them: the 19th table; unit inferred; read-out: EC 50.
On to `CCc1cnc(N2CCC(ON=C3CCN(c4cc(F)c(C(=O)NCC5CCNC5)cc4F)CC3)CC2)nc1` (stereo not drawn) [Example 29-90], for which the EC50 stood at 67 nM.

For `CCc1cnc(N2CCC(ON=C3CCN(c4cc(F)c(C(=O)NCCC5CCNCC5)cc4F)CC3)CC2)nc1` [Example 29-112], the EC50 was 38 nM.

The same test, now with this note: the 27th table; read-out: EC50.
With `[2H]C([2H])(O)c1cc(F)c(N2CCC(=NOC3CCN(C(=O)OC(C)C)CC3)CC2)cc1F` [Example 48-2], the EC50 was 18 nM.

Still in this test, the particulars now being: the 28th table; read-out: EC50.
As for `CC(C)OC(=O)N1CCC(ON=C2CCN(c3ncc(-n4cccn4)cc3F)CC2)CC1` [Example 51-2], the EC50 turned out to be 558 nM.

Staying with this test, now noted: the 30th table; read-out: EC50.
`CC(C)OC(=O)N1CCC(ON=C2CCN(c3ncc(CS(C)(=O)=O)cc3F)CC2)CC1` [Example 54-7]: the EC50 worked out at 484 nM.

Staying with this test, now noted: the 32nd table; read-out: EC50.
With `CS(=O)(=O)c1ccc(N2CCC(=NOC3CCN(c4ncccn4)CC3)CC2)c(F)c1` [Example 63-8], the EC50 is 238 nM.

Take `CCOC(=O)c1ccc(N2CCC(ON=C3CCN(c4ccc(S(C)(=O)=O)cc4F)CC3)CC2)nc1` [Example 63-26]: the EC50 is more than 10000 nM.

Regarding `CS(=O)(=O)c1ccc(N2CCC(=NOC3CCN(c4ccc(S(C)(=O)=O)cc4F)CC3)CC2)c(F)c1` [Example 63-22], the EC50 was found to be 397 nM.

The same test, now with this note: the 33rd table; read-out: EC50.
Take `CC#CCOC(=O)N1CCC(ON=C2CCN(c3ccc(S(C)(=O)=O)cc3F)CC2)CC1` [Example 64-4]: the EC50 stood at 152 nM.

On to `CC[C@H](C)COC(=O)N1CCC(ON=C2CCN(c3ccc(S(C)(=O)=O)cc3F)CC2)CC1` [Example 64-48], for which the EC50 stood at 54 nM.

With `CS(=O)(=O)c1ccc(N2CCC(=NOC3CCN(C(=O)OCCC4CC4)CC3)CC2)c(F)c1` [Example 64-39], the EC50 amounted to 127 nM.

The test is the same for the next values; noted with them: the 34th table, compounds 65-1 to 65-24; read-out: EC50.
With `CS(=O)(=O)c1ccc(N2CCC(=NOC3CCN(C(=S)NC4CC4)CC3)CC2)c(F)c1` [Example 65-10], the EC50 was more than 10000 nM.

Take `C=C(C)OC(=O)N1CCC(ON=C2CCN(c3ccc(S(C)(=O)=O)cc3F)CC2)CC1` [Example 65-15]: the EC50 stood at 64 nM.

`CC(C)COC(=O)N1CCC(ON=C2CCN(c3ccc(S(C)(=O)=O)cc3F)CC2)CC1` [Example 65-13]: the EC50 was determined as 82 nM.

As to `CS(=O)(=O)c1ccc(N2CCC(=NOC3CCN(CC(=O)OCc4ccccc4)CC3)CC2)c(F)c1` [Example 65-5], the EC50 stood at 3380 nM.

The test is the same for the next values; noted with them: the 36th table, compounds 66-1 to 66-51; read-out: EC50.
Take `CS(=O)(=O)c1ccc(N2CCC(=NOC3CCN(Cc4cscn4)CC3)CC2)c(F)c1` [Example 66-11]: the EC50 was more than 10000 nM.

Regarding `CS(=O)(=O)c1ccc(N2CCC(=NOC3CCN(Cc4ccccc4F)CC3)CC2)c(F)c1` [Example 66-16], the EC50 turned out to be 560 nM.

In the case of `CS(=O)(=O)c1ccc(N2CCC(=NOC3CCN(Cc4ccccc4C#N)CC3)CC2)c(F)c1` [Example 66-19], the EC50 is more than 10000 nM.

Still in this test, the particulars now being: the 37th table, compounds 66-52 to 66-64; read-out: EC50.
Regarding `CCCc1ccc(CN2CCC(ON=C3CCN(c4cc(F)c(S(C)(=O)=O)cc4F)CC3)CC2)c(F)c1` [Example 66-59], the EC50 was determined as 53 nM.

In the case of `CS(=O)(=O)c1cc(F)c(N2CCC(=NOC3CCN(Cc4ccc(-c5ccccn5)cc4)CC3)CC2)cc1F` [Example 66-52], the EC50 turned out to be 926 nM.

The same test, now with this note: the 43rd table, compounds 75-1 to 75-38; read-out: EC50.
With `CC(C)OC(=O)N1CCC(ON=C2CCN(c3cc(F)c(CC(=O)NCC4CCNC4)cc3F)CC2)CC1` (stereo not drawn) [Example 75-27], the EC50 was determined as 797 nM.

For the compound `CC(C)OC(=O)N1CCC(ON=C2CCN(c3cc(F)c(CC(=O)NCC4CCN(C)C4)cc3F)CC2)CC1` (stereo not drawn) [Example 75-33], the EC50 worked out at 128 nM.

With `CC(C)OC(=O)N1CCC(ON=C2CCN(c3cc(F)c(CC(=O)N4CCCC(CN)C4)cc3F)CC2)CC1` (stereo not drawn) [Example 75-22], the EC50 is 108 nM.

For `CC(C)OC(=O)N1CCC(ON=C2CCN(c3cc(F)c(CC(=O)NC4CCCNC4)cc3F)CC2)CC1` (stereo not drawn) [Example 75-16], the EC50 was 122 nM.

`CC(C)OC(=O)N1CCC(ON=C2CCN(c3cc(F)c(CC(=O)NC[C@H]4CCCN4)cc3F)CC2)CC1` [Example 75-11]: the EC50 came to 161 nM.

Turning to `CC(C)OC(=O)N1CCC(ON=C2CCN(c3cc(F)c(CC(=O)NCCN(C)C)cc3F)CC2)CC1` [Example 75-1, 4-(1-{4-[(2-dimethylamino-ethylcarbamoyl)-methyl]-2,5-difluoro-phenyl}-piperidin-4-ylideneaminooxy)-piperidine-1-carboxylic acid isopropyl ester], the EC50 was found to be 254 nM.
